{"source": "patent US20070010671A1", "about": "“Novel quinazoline derivatives and methods of treatment related to the use thereof” (priority 2003, published 2007)"}
{"molecular_target": "MCH receptor (Homo sapiens, UniProt Q99705)", "test": "High throughput functional screening FLIPR/FDSS6000: inhibition of MCH-evoked intracellular Ca2+ changes", "type": "cell-based", "conditions": "class by percent of control at 10^−7 M or by IC50; read-out: class", "how_it_was_run": "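In a kinetic calcium-flux format, compounds were tested at various concentrations against 50 nM MCH. Fluo4-loaded cells expressing a constitutively active, non-endogenous receptor were imaged at 488/530 nm for 290 s after agonist addition.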", "units": {"IC50": "nM"}}
{"molecule": "CN(C)c1nc(N[C@H]2CC[C@@H](NC(=O)c3ccc(Oc4ccc(F)cc4)nc3)CC2)nc2ccccc12", "note": "[Example 1059, N-(cis-4-{[4-(dimethylamino)quinazolin-2-yl]amino}cyclohexyl)-6-(4-fluorophenoxy)nicotinamide]", "IC50": "> 200"}
{"molecule": "CN(C)c1nc(N[C@H]2CC[C@@H](NC(=O)c3ccc(Oc4ccc(Cl)cc4)nc3)CC2)nc2ccccc12", "note": "[Example 1060, 6-(4-chlorophenoxy)-N-(cis-4-{[4-(dimethylamino)quinazolin-2-yl]amino}cyclohexyl)nicotinamide]", "IC50": "< 50"}
{"molecule": "CN(C)c1nc(N[C@H]2CC[C@@H](NC(=O)c3ccc(Oc4ccc(Br)cc4)nc3)CC2)nc2ccccc12", "note": "[Example 1061, 6-(4-bromophenoxy)-N-(cis-4-{[4-(dimethylamino)quinazolin-2-yl]amino}cyclohexyl)nicotinamide]", "IC50": "> 200"}
{"molecule": "CN(C)c1nc(N[C@H]2CC[C@@H](NC(=O)c3ccc(Oc4ccc(OC(F)(F)F)cc4)nc3)CC2)nc2ccccc12", "note": "[Example 1062, N-(cis-4-{[4-(dimethylamino)quinazolin-2-yl]amino}cyclohexyl)-6-[4-(trifluoromethoxy)phenoxy]nicotinamide]", "IC50": "> 200"}
{"molecule": "CN(C)c1nc(N[C@H]2CC[C@@H](NC(=O)c3ccc(Oc4cc(F)cc(F)c4)nc3)CC2)nc2ccccc12", "note": "[Example 1063, 6-(3,5-difluorophenoxy)-N-(cis-4-{[4-(dimethylamino)quinazolin-2-yl]amino}cyclohexyl)nicotinamide]", "IC50": "> 200"}
{"molecule": "CN(C)c1nc(N[C@H]2CC[C@@H](NC(=O)c3ccc(Oc4cccc(F)c4F)nc3)CC2)nc2ccccc12", "note": "[Example 1064, 6-(2,3-difluorophenoxy)-N-(cis-4-{[4-(dimethylamino)quinazolin-2-yl]amino}cyclohexyl)nicotinamide]", "IC50": "< 50"}
{"molecule": "CN(C)c1nc(N[C@H]2CC[C@@H](NC(=O)c3ccc(Oc4ccc(F)c(F)c4)nc3)CC2)nc2ccccc12", "note": "[Example 1065, 6-(3,4-difluorophenoxy)-N-(cis-4-{[4-(dimethylamino)quinazolin-2-yl]amino}cyclohexyl)nicotinamide]", "IC50": "< 50"}
{"molecule": "COc1cccc(Oc2ccc(C(=O)N[C@H]3CC[C@@H](Nc4nc(N(C)C)c5ccccc5n4)CC3)cn2)c1OC", "note": "[Example 1066, 6-(2,3-dimethoxyphenoxy)-N-(cis-4-{[4-(dimethylamino)quinazolin-2-yl]amino}cyclohexyl)nicotinamide]", "IC50": "< 50"}
{"molecule": "COc1cc(Cl)ccc1Oc1ccc(C(=O)N[C@H]2CC[C@@H](Nc3nc(N(C)C)c4ccccc4n3)CC2)cn1", "note": "[Example 1068, 6-(4-chloro-2-methoxyphenoxy)-N-(cis-4-{[4-(dimethylamino)quinazolin-2-yl]amino}cyclohexyl)nicotinamide]", "IC50": "50 to 200"}
{"molecule": "CN(C)c1nc(N[C@H]2CC[C@@H](NC(=O)c3ccc(Oc4ccc(Cl)c(F)c4)nc3)CC2)nc2ccccc12", "note": "[Example 1069, 6-(4-chloro-3-fluorophenoxy)-N-(cis-4-{[4-(dimethylamino)quinazolin-2-yl]amino}cyclohexyl)nicotinamide]", "IC50": "< 50"}
{"molecule": "CN(C)c1nc(N[C@H]2CC[C@@H](NC(=O)c3ccc(Oc4ccc(F)c(Cl)c4)nc3)CC2)nc2ccccc12", "note": "[Example 1070, 6-(3-chloro-4-fluorophenoxy)-N-(cis-4-{[4-(dimethylamino)quinazolin-2-yl]amino}cyclohexyl)nicotinamide]", "IC50": "50 to 200"}
{"molecule": "COc1cc(OC)cc(Oc2ccc(C(=O)N[C@H]3CC[C@@H](Nc4nc(N(C)C)c5ccccc5n4)CC3)cn2)c1", "note": "[Example 1071, 6-(3,5-dimethoxyphenoxy)-N-(cis-4-{[4-(dimethylamino)quinazolin-2-yl]amino}cyclohexyl)nicotinamide]", "IC50": "50 to 200"}
{"molecule": "CN(C)c1nc(N[C@H]2CC[C@@H](NC(=O)c3ccc(Oc4cccc(Br)c4)nc3)CC2)nc2ccccc12", "note": "[Example 1072, 6-(3-bromophenoxy)-N-(cis-4-{[4-(dimethylamino)quinazolin-2-yl]amino}cyclohexyl)nicotinamide]", "IC50": "> 200"}
{"molecule": "CN(C)c1nc(N[C@H]2CC[C@@H](NC(=O)c3ccnc(Oc4cccc(Cl)c4)c3)CC2)nc2ccccc12", "note": "[Example 1073, 2-(3-chlorophenoxy)-N-(cis-4-{[4-(dimethylamino)quinazolin-2-yl]amino}cyclohexyl)isonicotinamide]", "IC50": "50 to 200"}
{"molecule": "CN(C)c1nc(N[C@H]2CC[C@@H](NC(=O)c3ccnc(Oc4ccc(Cl)cc4)c3)CC2)nc2ccccc12", "note": "[Example 1074, 2-(4-chlorophenoxy)-N-(cis-4-{[4-(dimethylamino)quinazolin-2-yl]amino}cyclohexyl)isonicotinamide]", "IC50": "< 50"}
{"molecule": "CN(C)c1nc(N[C@H]2CC[C@@H](NC(=O)COc3ccc(Cl)c(Cl)c3)CC2)nc2ccccc12", "note": "[Example 1075, 2-(3,4-dichlorophenoxy)-N-(cis-4-{[4-(dimethylamino)quinazolin-2-yl]amino}cyclohexyl)acetamide]", "IC50": "< 50"}
{"molecule": "Cc1ccc(OCC(=O)N[C@H]2CC[C@@H](Nc3nc(N(C)C)c4ccccc4n3)CC2)cc1C", "note": "[Example 1076, N-(cis-4-{[4-(dimethylamino)quinazolin-2-yl]amino}cyclohexyl)-2-(3,4-dimethylphenoxy)acetamide]", "IC50": "> 200"}
{"molecule": "CN(C)c1nc(N[C@H]2CC[C@@H](NC(=O)COc3cc(Cl)c(Cl)cc3Cl)CC2)nc2ccccc12", "note": "[Example 1077, N-(cis-4-{[4-(dimethylamino)quinazolin-2-yl]amino}cyclohexyl)-2-(2,4,5-trichlorophenoxy)acetamide]", "IC50": "50 to 200"}
{"molecule": "CN(C)c1nc(N[C@H]2CC[C@@H](NC(=O)COc3ccc(F)cc3)CC2)nc2ccccc12", "note": "[Example 1078, N-(cis-4-{[4-(dimethylamino)quinazolin-2-yl]amino}cyclohexyl)-2-(4-fluorophenoxy)acetamide]", "IC50": "< 50"}
{"molecule": "Cc1cccc(OCC(=O)N[C@H]2CC[C@@H](Nc3nc(N(C)C)c4ccccc4n3)CC2)c1", "note": "[Example 1079, N-(cis-4-{[4-(dimethylamino)quinazolin-2-yl]amino}cyclohexyl)-2-(3-methylphenoxy)acetamide]", "IC50": "< 50"}
{"molecule": "COc1ccc(OCC(=O)N[C@H]2CC[C@@H](Nc3nc(N(C)C)c4ccccc4n3)CC2)cc1", "note": "[Example 1080, N-(cis-4-{[4-(dimethylamino)quinazolin-2-yl]amino}cyclohexyl)-2-(4-methoxyphenoxy)acetamide]", "IC50": "< 50"}
{"molecule": "COc1cccc(OCC(=O)N[C@H]2CC[C@@H](Nc3nc(N(C)C)c4ccccc4n3)CC2)c1", "note": "[Example 1081, N-(cis-4-{[4-(dimethylamino)quinazolin-2-yl]amino}cyclohexyl)-2-(3-methoxyphenoxy)acetamide]", "IC50": "< 50"}
{"molecule": "COc1ccccc1OCC(=O)N[C@H]1CC[C@@H](Nc2nc(N(C)C)c3ccccc3n2)CC1", "note": "[Example 1082, N-(cis-4-{[4-(dimethylamino)quinazolin-2-yl]amino}cyclohexyl)-2-(2-methoxyphenoxy)acetamide]", "IC50": "50 to 200"}
{"molecule": "CN(C)c1nc(N[C@H]2CC[C@@H](NC(=O)COc3ccc(Cl)cc3Cl)CC2)nc2ccccc12", "note": "[Example 1083, 2-(2,4-dichlorophenoxy)-N-(cis-4-{[4-(dimethylamino)quinazolin-2-yl]amino}cyclohexyl)acetamide]", "IC50": "50 to 200"}
{"molecule": "CN(C)c1nc(N[C@H]2CC[C@@H](NC(=O)c3ccc(OCc4ccccc4)cc3)CC2)nc2ccccc12", "note": "[Example 1084, 4-(benzyloxy)-N-(cis-4-{[4-(dimethylamino)quinazolin-2-yl]amino}cyclohexyl)benzamide]", "IC50": "> 200"}
{"molecule": "CN(C)c1nc(N[C@H]2CC[C@@H](NC(=O)CNc3ccccc3)CC2)nc2ccccc12", "note": "[Example 1085, N-(cis-4-{[4-(dimethylamino)quinazolin-2-yl]amino}cyclohexyl)-N2-phenylglycinamide]", "IC50": "< 50"}
{"molecule": "Cc1cccc(NCC(=O)N[C@H]2CC[C@@H](Nc3nc(N(C)C)c4ccccc4n3)CC2)c1", "note": "[Example 1086, N-(cis-4-{[4-(dimethylamino)quinazolin-2-yl]amino}cyclohexyl)-N2-(3-methylphenyl)glycinamide]", "IC50": "< 50"}
{"molecule": "CN(C)c1nc(N[C@H]2CC[C@@H](NC(=O)CNc3cccc(F)c3)CC2)nc2ccccc12", "note": "[Example 1087, N-(cis-4-{[4-(dimethylamino)quinazolin-2-yl]amino}cyclohexyl)-N2-(3-fluorophenyl)glycinamide]", "IC50": "< 50"}
{"molecule": "CN(C)c1nc(N[C@H]2CC[C@@H](NC(=O)CN(C)c3ccccc3)CC2)nc2ccccc12", "note": "[Example 1088, N-(cis-4-{[4-(dimethylamino)quinazolin-2-yl]amino}cyclohexyl)-N2-methyl-N2-phenylglycinamide]", "IC50": "< 50"}
{"molecule": "CN(C)c1nc(N[C@H]2CC[C@@H](NC(=O)CNc3ccc(Cl)cc3)CC2)nc2ccccc12", "note": "[Example 1089, N2-(4-chlorophenyl)-N-(cis-4-{[4-(dimethylamino)quinazolin-2-yl]amino}cyclohexyl)glycinamide]", "IC50": "< 50"}
{"molecule": "COc1cccc(NCC(=O)N[C@H]2CC[C@@H](Nc3nc(N(C)C)c4ccccc4n3)CC2)c1", "note": "[Example 1090, N-(cis-4-{[4-(dimethylamino)quinazolin-2-yl]amino}cyclohexyl)-N2-(3-methoxyphenyl)glycinamide]", "IC50": "< 50"}
{"molecule": "CN(C)c1nc(N[C@H]2CC[C@@H](NC(=O)CNc3ccc(F)cc3)CC2)nc2ccccc12", "note": "[Example 1091, N-(cis-4-{[4-(dimethylamino)quinazolin-2-yl]amino}cyclohexyl)-N2-(4-fluorophenyl)glycinamide]", "IC50": "< 50"}
{"molecule": "CN(C)c1nc(N[C@H]2CC[C@@H](CNC(=O)[C@@H](O)c3cccc(Cl)c3)CC2)nc2ccccc12", "note": "[Example 1100, (2S)-2-(3-chlorophenyl)-N-[(cis-4-{[4-(dimethylamino)-quinazolin-2-yl]amino}cyclohexyl)methyl]-2-hydroxyacetamide]", "IC50": "50 to 200"}
{"molecule": "CN(C)c1nc(N[C@H]2CC[C@@H](CNC(=O)[C@H](O)c3ccccc3Cl)CC2)nc2ccccc12", "note": "[Example 1101, (2R)-2-(2-chlorophenyl)-N-[(cis-4-{[4-(dimethylamino)-quinazolin-2-yl]amino}cyclohexyl)methyl]-2-hydroxyacetamide]", "IC50": "50 to 200"}
